Experimental data from ChEMBL document CHEMBL3046440, “Synthesis and antitumor evaluation of some 1,3,4-oxadiazole-2(3H)-thione and 1,2,4-triazole-5(1H)-thione derivatives” (Med Chem Res, 2012).

Tested on: K562
Assay: Cytotoxicity against Homo sapiens (human) K562 cells after 24 hr by MTT assay
Type: functional, cell-based
Conditions: K562, 24 h

`C[C@H](NC(=O)c1ccc(Cl)cc1)c1n[nH]c(=S)o1` gave an IC50 of 31.1 µM.

Work on `C[C@H](NC(=O)c1ccc(Cl)cc1)c1n[nH]c(=S)n1N` yielded an IC50 of 98.6 µM.

`NC(=O)NO` [HYDROXYUREA] gave an IC50 of 688 µM.

Work on `COc1ccc(/C=C/C(=O)N[C@H](C)c2n[nH]c(=S)o2)cc1` yielded an IC50 of 330 µM.

Compound `C[C@H](NC(=O)c1cccnc1)c1n[nH]c(=S)o1` has an IC50 of 739 µM.

With `C[C@H](NC(=O)c1ccccc1)c1n[nH]c(=S)n1N` the IC50 was 372 µM.

`CC(C)[C@H](NC(=O)c1ccccc1)c1n[nH]c(=S)o1` was tested, and the IC50 was 245 µM.

Compound `CC(C)[C@H](NC(=O)c1ccccc1)c1n[nH]c(=S)n1N` has an IC50 of 154 µM.

For `CC(C)[C@H](NC(=O)c1ccc([N+](=O)[O-])cc1)c1n[nH]c(=S)o1`, the IC50 was 43.6 µM.

In the case of `C[C@H](NC(=O)c1ccccc1)c1n[nH]c(=S)o1`, the IC50 is reported as 377 µM.

With `O=C(/C=C/c1ccccc1)N[C@H](CO)c1n[nH]c(=S)o1` the IC50 was 435 µM.

For `C[C@H](NC(=O)Cc1ccccc1)c1n[nH]c(=S)o1`, the IC50 was 1020 µM.
